PMC2628638, “Catalytic inhibition of topoisomerase II by a novel rationally designed ATP-competitive purine analogue” (BMC Chemical Biology, 2009)

Tests used:
HL-60 cells = experiment: Proliferation assay over 72 hours; type: cell-based; details: Homo sapiens, read-out: half-maximal growth inhibitory concentration (GI50)
[1] = test system: panel of serine/threonine/tyrosine protein kinases; experiment: Kinase selectivity profiling, standard panel of kinases; type: biochemical; details: in vitro, versus topoisomerase II
Excerpt: Based on homology structural models of the target, a purine scaffold was designed interactively using the Macromodel modeling software. The designed purine scaffold was subsequently used as a substructure query to search the Novartis compound collection. Around 50 molecules were retrieved in this manner and screened in an ATPase assay using purified full length tagged human topoisomerase II alpha. […] Subsequently, we carried out kinetic analysis with QAP 1 in order to corroborate the mode of action. […] The data were analyzed by non-linear regression analysis using the equations corresponding to competitive, uncompetitive, and mixed inhibition (see Methods) and a statistical analysis (F-test; p ≤ 0.05) was carried out to identify the best model. […] A linearized representation (Eady-Hofstee) of one of these experiments is depicted in Figure 1D. To confirm the mode of action of QAP 1, inhibition studies were also carried out in the presence of different concentration of the inhibitor at different ATP concentrations and the IC50 values were determined. […] Next, QAP 1 was tested against a panel of kinases in a radiometric assay. With the exception of subtle inhibition of the Ret and c-Src tyrosine kinases no effect of the compound was observed on other kinases in the panel, even at the highest concentration tested (Table 1). […]

topoisomerase II alpha = topoisomerase II alpha (Homo sapiens, UniProt P11388); experiment: Affinity precipitation with biotinylated purine analogue 2 from HL-60 nuclear extracts; type: binding; design: endogenous in cells; host or cells: HL-60 nuclear extract; details: 1 μM biotinylated analogue 2; competitor in excess (10 μM), QAP 1 also at equimolar concentration
Method: Topoisomerase II α and β were affinity precipitated with biotinylated inhibitor as follows. Exponentially growing HL-60 cells were collected on ice and incubated with hypotonic buffer (10 mM HEPES pH 7.5, 1.5 mM MgCl2, 10 mM KCl, 0.5 mM DTT, 0.5 mM PMSF, 1× protease inhibitor cocktail (Complete Mini, Roche Diagnostics GmbH)) for 15 minutes, then 0.6% v/v NP-40 was added and cells were disrupted using a Dounce homogenizer. Lysates were transferred to 1.5 ml Protein LoBind Eppendorf tubes and nuclei were collected after centrifugation at 8000 rpm for 10 minutes and washed twice with hypotonic buffer. To extract and release chromatin associated topoisomerase II nuclei were incubated for 30 minutes in DNAse buffer (20 mM Tris HCl pH 7.5, 5 mM MgCl2, 1 mM CaCl2, 25 mM NaCl, 0.5 mM EDTA, 1% NP-40, 1 mM DTT, 1 × protease inhibitor cocktail, 0.1 mM PMSF) containing 40 U DNAse I (Roche Diagnostics GmbH) followed by addition of twice concentrated nuclear extraction buffer (20 mM HEPES pH 7.5, 3 mM MgCl2, 20 mM KCl, 50 mM β-glycerophosphate, 840 mM NaCl, 1 mM EDTA, 50 mM PNPP, 1 mM DTT, 1 mM PMSF) and rotation for 1 h in the coldroom. The soluble fraction was obtained following centrifugation at 13000 rpm for 15 minutes. 25 μg nuclear extract were used for the affinity precipitation. The salt concentration was adjusted to 150 mM with nuclear extraction buffer (without NaCl) and the sample volume was toped off to 200 μl with precipitation buffer (50 mM HEPES pH 7.4, 150 mM NaCl, 25 mM β-glycerophosphate, 25 mM NaF, 5 mM EGTA, 1 mM EDTA, 15 mM PPI, 1 mM PMSF). Compounds were preincubated for 30 minutes prior addition of biotinylated purine analogue 2 for 2 h. Streptavidin agarose beads (Novagen, 69203) were washed twice with PBS, blocked for 30 minutes with PBS containing 1% BSA, washed twice with PBS and finally with precipitation buffer. 40 μl equilibrated streptavidin agarose beads were added to the sample and incubation was continued for 1 h. Beads were pelleted by centrifugation at 7000 rpm for 5 minutes and washed thrice with precipitation buffer. During the last wash the beads were transferred to a new tube and the bound fraction was released by boiling for 5 minutes in Laemmli sample buffer. Topoisomerase II α and β were detected by Western blot as described below.

Chain of topoisomerase II alpha (P11388 whole entry): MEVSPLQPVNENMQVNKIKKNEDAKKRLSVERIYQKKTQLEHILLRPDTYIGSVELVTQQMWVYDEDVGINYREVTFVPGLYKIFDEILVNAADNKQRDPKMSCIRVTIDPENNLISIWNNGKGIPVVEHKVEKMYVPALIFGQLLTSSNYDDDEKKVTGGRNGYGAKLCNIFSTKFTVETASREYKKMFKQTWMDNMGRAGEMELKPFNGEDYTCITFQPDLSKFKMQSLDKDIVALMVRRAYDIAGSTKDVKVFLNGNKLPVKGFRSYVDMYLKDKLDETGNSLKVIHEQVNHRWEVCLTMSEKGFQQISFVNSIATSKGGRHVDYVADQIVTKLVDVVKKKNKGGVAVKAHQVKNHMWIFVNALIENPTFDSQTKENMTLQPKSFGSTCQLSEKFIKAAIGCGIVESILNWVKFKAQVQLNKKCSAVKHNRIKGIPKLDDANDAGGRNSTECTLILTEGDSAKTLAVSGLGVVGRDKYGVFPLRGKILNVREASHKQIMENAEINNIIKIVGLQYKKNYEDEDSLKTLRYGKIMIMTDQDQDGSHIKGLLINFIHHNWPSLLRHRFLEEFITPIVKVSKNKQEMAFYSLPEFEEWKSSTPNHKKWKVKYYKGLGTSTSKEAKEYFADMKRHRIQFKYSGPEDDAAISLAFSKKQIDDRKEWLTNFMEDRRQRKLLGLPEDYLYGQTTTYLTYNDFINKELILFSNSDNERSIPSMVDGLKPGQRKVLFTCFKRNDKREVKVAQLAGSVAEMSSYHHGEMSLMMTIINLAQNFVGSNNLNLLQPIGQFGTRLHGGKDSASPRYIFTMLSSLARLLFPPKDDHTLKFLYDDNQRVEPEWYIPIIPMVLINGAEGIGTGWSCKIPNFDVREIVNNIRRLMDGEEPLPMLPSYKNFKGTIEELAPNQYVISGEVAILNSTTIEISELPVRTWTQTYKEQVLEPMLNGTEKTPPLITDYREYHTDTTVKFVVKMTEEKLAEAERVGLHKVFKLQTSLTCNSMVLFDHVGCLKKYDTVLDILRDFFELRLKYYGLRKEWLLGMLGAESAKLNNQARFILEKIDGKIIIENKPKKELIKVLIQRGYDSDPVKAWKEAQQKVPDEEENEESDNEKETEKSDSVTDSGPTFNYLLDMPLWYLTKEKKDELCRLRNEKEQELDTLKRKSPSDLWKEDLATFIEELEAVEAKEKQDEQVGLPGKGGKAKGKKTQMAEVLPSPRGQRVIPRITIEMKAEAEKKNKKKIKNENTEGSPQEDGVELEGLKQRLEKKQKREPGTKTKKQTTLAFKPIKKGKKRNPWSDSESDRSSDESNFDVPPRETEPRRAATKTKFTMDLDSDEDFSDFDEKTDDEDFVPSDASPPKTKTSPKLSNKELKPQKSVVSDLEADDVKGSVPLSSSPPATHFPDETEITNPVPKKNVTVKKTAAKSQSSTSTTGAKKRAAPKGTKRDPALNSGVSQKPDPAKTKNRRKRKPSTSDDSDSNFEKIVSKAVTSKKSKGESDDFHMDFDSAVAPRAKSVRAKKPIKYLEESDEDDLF

**Q.** For CCc1nc2nc(Nc3ccc4nc(OCCN5CCOCC5)ccc4c3)nc(NC(C)(C)C)c2[nH]1 [QAP 1], which GI50 (HL-60 cells) is on record?
**A.** 8 µM

**Q.** What about the “selectivity over a standard panel of kinases” value [1] of the same molecule?
**A.** greater than 10 fold

**Q.** What about the “competition of the interaction of biotinylated purine analogue 2 with topoisomerase II alpha” value (topoisomerase II alpha) of the same molecule?
**A.** abolished
